Patent US11952363B2, “Piperazine compounds for the treatment of autoimmune disease” (Hoffmann-La Roche Inc., priority 2018, dated 2024)

How the values were obtained:
[1] = target: T1, hERG (Homo sapiens, UniProt Q12809); assay: hERG channel inhibition assay (patch-clamp, CHO hERG cells); format: cell-based; details: for IC50 / IC20: CHO hERG cells, whole-cell patch-clamp; for IC20: human, CHO cells stably expressing hERG; for hERG IC20/TLR7 IC50 / hERG IC20/TLR8 IC50 / hERG IC20/TLR9 IC50: safety ratio, >30 suggests sufficient window
T1 construct: expressed in transfected cells
T1 sequence (Q12809 whole entry): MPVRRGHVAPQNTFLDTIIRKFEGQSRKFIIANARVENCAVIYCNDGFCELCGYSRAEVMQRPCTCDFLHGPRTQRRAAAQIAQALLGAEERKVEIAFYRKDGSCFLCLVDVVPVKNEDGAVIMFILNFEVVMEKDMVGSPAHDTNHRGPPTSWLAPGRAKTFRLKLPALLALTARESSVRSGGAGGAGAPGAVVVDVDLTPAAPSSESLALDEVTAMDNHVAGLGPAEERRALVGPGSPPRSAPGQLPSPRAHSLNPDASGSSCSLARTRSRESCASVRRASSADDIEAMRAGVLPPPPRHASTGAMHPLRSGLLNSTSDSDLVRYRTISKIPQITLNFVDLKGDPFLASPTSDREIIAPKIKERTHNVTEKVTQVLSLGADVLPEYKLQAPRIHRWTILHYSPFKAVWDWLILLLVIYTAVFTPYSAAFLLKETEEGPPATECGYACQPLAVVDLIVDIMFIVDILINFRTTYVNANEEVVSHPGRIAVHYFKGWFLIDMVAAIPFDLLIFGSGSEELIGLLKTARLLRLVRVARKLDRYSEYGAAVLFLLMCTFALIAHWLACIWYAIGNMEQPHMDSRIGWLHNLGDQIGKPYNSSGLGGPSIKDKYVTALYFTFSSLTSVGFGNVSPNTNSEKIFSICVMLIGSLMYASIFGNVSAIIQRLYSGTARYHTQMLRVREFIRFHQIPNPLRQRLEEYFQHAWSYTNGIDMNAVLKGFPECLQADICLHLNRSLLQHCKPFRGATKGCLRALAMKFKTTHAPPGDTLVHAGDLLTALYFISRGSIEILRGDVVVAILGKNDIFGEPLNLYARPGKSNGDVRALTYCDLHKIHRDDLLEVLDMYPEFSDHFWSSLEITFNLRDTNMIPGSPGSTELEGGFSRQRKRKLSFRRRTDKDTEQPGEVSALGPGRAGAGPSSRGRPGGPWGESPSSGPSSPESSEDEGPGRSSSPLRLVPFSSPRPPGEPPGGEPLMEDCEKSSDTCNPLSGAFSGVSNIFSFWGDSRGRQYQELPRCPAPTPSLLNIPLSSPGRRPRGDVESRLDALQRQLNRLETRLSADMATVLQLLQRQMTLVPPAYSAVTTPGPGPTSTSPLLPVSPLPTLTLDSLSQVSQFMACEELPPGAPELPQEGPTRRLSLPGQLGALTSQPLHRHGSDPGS
Experimental: The hERG K^+ channels were cloned in humans and stably expressed in a CHO (Chinese hamster ovary) cell line. CHOhERG cells were used for patch-clamp (voltage-clamp, whole-cell) experiments. Cells were stimulated by a voltage pattern to activate hERG channels and conduct I KhERG currents (rapid delayed outward rectifier potassium current of the hERG channel). After the cells were stabilized for a few minutes, the amplitude and kinetics of I KhERG were recorded at a stimulation frequency of 0.1 Hz (6 bpm). Thereafter, the test compound was added to the preparation at increasing concentrations. For each concentration, an attempt was made to reach a steady-state effect, usually, this was achieved within 3-10 min at which time the next highest concentration was applied. The amplitude and kinetics of IKhERG are recorded in each concentration of the drug which were compared to the control values (taken as 100%). […]

[2] = target: T2, human TLR8 (Homo sapiens, UniProt Q9NR97); assay: HEK293-Blue-hTLR-8 cells assay (SEAP reporter, R848 stimulation); format: cell-based; details: HEK293-Blue-hTLR8 cells, R848 ligand, 20 hrs incubation; read-out: HEK/hTLR8 IC50
T2 sequence (Q9NR97 27-1041): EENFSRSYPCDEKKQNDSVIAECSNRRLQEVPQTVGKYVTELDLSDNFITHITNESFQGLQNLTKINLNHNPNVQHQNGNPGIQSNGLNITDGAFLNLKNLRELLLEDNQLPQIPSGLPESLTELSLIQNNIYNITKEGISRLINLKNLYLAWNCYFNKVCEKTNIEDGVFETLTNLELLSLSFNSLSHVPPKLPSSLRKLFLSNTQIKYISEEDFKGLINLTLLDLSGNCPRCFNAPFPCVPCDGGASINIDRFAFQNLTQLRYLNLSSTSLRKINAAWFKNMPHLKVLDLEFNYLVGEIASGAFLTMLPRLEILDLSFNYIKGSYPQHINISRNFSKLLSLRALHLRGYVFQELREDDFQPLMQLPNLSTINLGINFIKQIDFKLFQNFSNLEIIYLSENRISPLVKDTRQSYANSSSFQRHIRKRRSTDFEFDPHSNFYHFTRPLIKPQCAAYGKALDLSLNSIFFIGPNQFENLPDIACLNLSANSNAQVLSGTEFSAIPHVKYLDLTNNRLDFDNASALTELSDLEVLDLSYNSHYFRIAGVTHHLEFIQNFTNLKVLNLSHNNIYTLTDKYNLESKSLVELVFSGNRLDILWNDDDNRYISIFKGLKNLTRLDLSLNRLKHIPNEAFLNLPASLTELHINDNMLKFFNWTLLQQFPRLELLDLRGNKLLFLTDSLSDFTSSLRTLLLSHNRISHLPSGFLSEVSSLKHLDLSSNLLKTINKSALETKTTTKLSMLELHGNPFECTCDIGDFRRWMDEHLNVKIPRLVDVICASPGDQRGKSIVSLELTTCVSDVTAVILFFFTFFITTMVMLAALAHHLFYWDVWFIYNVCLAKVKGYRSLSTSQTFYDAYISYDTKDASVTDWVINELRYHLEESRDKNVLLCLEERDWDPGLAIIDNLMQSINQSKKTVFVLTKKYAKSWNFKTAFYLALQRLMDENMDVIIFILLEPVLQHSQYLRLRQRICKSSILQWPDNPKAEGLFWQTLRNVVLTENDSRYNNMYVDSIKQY
Experimental: The following tests were carried out in order to determine the activity of the compounds of formula (I) in HEK293-Blue-hTLR-7/8/9 cells assay.
A stable HEK293-Blue-hTLR-8 cell line was purchased from InvivoGen (Cat.#: hkb-htlr8, San Diego, California, USA). These cells were originally designed for studying the stimulation of human TLR8 by monitoring the activation of NF-κB. A SEAP (secreted embryonic alkaline phosphatase) reporter gene was placed under the control of the IFN-β minimal promoter fused to five NF-κB and AP-1-binding sites. The SEAP was induced by activating NF-κB and. AP-1 via stimulating HEK-Blue hTLR8 cells with TLR8 ligands. Therefore the reporter expression was declined by TLR8 antagonist under the stimulation of a ligand, such as R848, for incubation of 20 hrs. The cell culture supernatant SEAP reporter activity was determined using QUANTI-Blue™ kit (Cat.#: rep-qb1, Invivogen, San Diego, Ca, USA) at a wavelength of 640 nm, a detection medium that tunas purple or blue in the presence of alkaline phosphatase.
HEK293-Blue-hTLR8 cells were incubated at a density of 250,000˜450,000 cells/mL in a volume of 170 μL in a 96-well plate in Dulbecco's Modified Eagle's medium (DMEM) containing 4.5 g/L glucose, 50 U/mL penicillin, […], […], 2 mM L-glutamine, 10% (v/v) heat-inactivated fetal bovine serum with addition of 20 μL test compound in a serial dilution in the presence of final DMSO at 1% and 10 μL of 60 uM R848 in above DMEM, perform incubation under 37° C. in a CO2 incubator for 20 hrs. Then 20 μL of the supernatant from each well was incubated with […] Quanti-blue substrate solution at 37° C. for 2 hrs and the absorbance was read at 620-655 nm using a spectrophotometer. The signalling pathway that TLR8 activation leads to downstream NF-κB activation has been widely accepted, and therefore similar reporter assay was modified for evaluating TLR8 antagonist.

[3] = Human microsomal stability assay; format: in vitro ADME; details: human liver microsomes 0.5 mg/mL, 1 μM test compound, 37° C., pH 7.4
Experimental: Human liver microsomes (Cat.NO.: 452117, Corning, USA) were preincubated with test compound for 10 minutes at 37° C. in 100 mM potassium phosphate buffer, pH 7.4. The reactions were initiated by adding NADPH regenerating system. The final incubation mixtures contained 1 μM test compound, 0.5 mg/mL liver microsomal protein, 1 mM MgCl2, 1 mM NADP, 1 unit/mL isocitric dehydrogenase and 6 mM isocitric acid in 100 mM potassium phosphate buffer, pH 7.4. After incubation times of 0, 3, 6, 9, 15 and 30 minutes at 37° C., 300 μL of cold ACN (including internal standard) was added to 100 μL incubation mixture to terminate the reaction. Following precipitation and centrifugation, 100 uL supernatant will be taken out and added 300 uL water. The amount of compound remaining in the samples was determined by LC-MS/MS. Controls of no NADPH regenerating system at zero and 30 minutes were also prepared and analyzed.

Structure (SMILES) | IC50 [2] [µM] | Clearance of Human microsome [3] [mL/min/kg] | IC50 [1] [µM] | IC20 [1] [µM] | hERG IC20/TLR7 IC50 [1] | hERG IC20/TLR8 IC50 [1] | hERG IC20/TLR9 IC50 [1]
CC1CN(c2ccc(C#N)c3ncccc23)CCN1CC(=O)Nc1ccc2c(c1)CCNC2 (stereo not drawn) [Example 18, 2-[4-(8-Cyano-5-quinolyl)-2-methyl-piperazin-1yl]-N-(1,2,3,4-tetrahydroisoquinolin-6-yl)acetamide] | 0.04 | 6.3 | – | – | – | – | –
C[C@@H]1CN(c2ccc(C#N)c3ncccc23)C[C@H](C)N1Cc1ccc(N2CC3CNCC(C2)O3)cn1 [Example 8, 5-[(3S,5R)-3,5-Dimethyl-4-[[5-(9-oxa-3,7-diazabicyclo[3.3.1]nonan-3-yl)-2-pyridyl]methyl]piperazin-1-yl]quinoline-8-carbonitrile] | 0.036 | 12.4 | – | – | – | – | –
CC1CN(c2ccc(C#N)c3ncccc23)CCN1CC(=O)Nc1ccc(N2CCNCC2)cc1 (stereo not drawn) [Example 17, 2-[4-(8-Cyano-5-quinolyl)-2-methyl-piperazin-1-yl]-N-(4-piperazin-1-ylpheny)acetamide] | 0.058 | 6.9 | – | – | – | – | –
C[C@@H]1CN(c2ccc(C#N)c3ncccc23)C[C@H](C)N1Cc1ccc(N2CCNCC2CO)cc1 (stereo partly drawn) [Example 12, 5-[(3R,5S)-4-[[4-[2-(Hydroxymethyl)piperazin-1-yl]phenyl]methyl]-3,5-dimethyl-piperazin-1-yl]quinoline-8-carbonitrile] | 0.033 | 10.1 | – | – | – | – | –
C[C@@H]1CN(c2ccc(C#N)c3ncccc23)C[C@H](C)N1CC(=O)N1Cc2ccc(N3CCNCC3)cc2C1 [Example 16, 5-[(3R,5S)-3,5-Dimethyl-4-[2-oxo-2-(5-piperazin-1-ylisoindolin-2-yl)ethyl]piperazin-1-yl]quinoline-8-carbonitrile] | 0.055 | 9.4 | > 20 | > 10 | >289 | >182 | >134

Compounds with a lower IC50 [2], results first:

IC50 [2] [µM] | Clearance of Human microsome [3] [mL/min/kg] | Structure (SMILES) | IC50 [1] [µM] | IC20 [1] [µM] | hERG IC20/TLR7 IC50 [1] | hERG IC20/TLR8 IC50 [1] | hERG IC20/TLR9 IC50 [1]
0.019 | 10.4 | C[C@@H]1CN(c2ccc(C#N)c3ncccc23)C[C@H](C)N1Cc1ncc(N2CCNCC2)cn1 [Example 4, 5-[(3S,5R)-3,5-Dimethyl-4-[(5-piperazin-1-ylpyrimidin-2-yl)methyl]piperazin-1-yl]quinoline-8-carbonitrile] | > 20 | 6.3 | 384 | 355 | 45
0.031 | 11.6 | C[C@@H]1CN(c2ccc(C#N)c3ncccc23)C[C@H](C)N1Cc1ccc(N2CCNCC2)nc1 [Example 3, 5-[(3R,5S)-3,5-Dimethyl-4-[(6-piperazin-1-yl-3-pyridyl)methyl]piperazin-1-yl]quinoline-8-carbonitrile] | > 20 | 7.4 | 383 | 240 | 79
0.016 | 11.2 | C[C@@H]1CN(c2ccc(C#N)c3ncccc23)C[C@H](C)N1Cc1ccc(N2CCNCC2)cc1 [Example 1, 5-[(3R,5S)-3,5-Dimethyl-4-[(4-piperazin-1-ylphenyl)methyl]piperazin-1-yl]quinoline-8-carbonitrile] | – | – | – | – | –
0.032 | 8.0 | C[C@@H]1CN(c2ccc(C#N)c3ncccc23)C[C@@H](C)N1Cc1ccc(N2CCNCC2)cc1 [Example 2] | – | – | – | – | –
